pIC50: −log10 of the molar value.
Molecular target: T1, human KV1.3 channels (Homo sapiens, UniProt P22001)
T1 construct: gene KCNA3; homotetramer
Experiment: whole-cell patch clamp, CHO cells
Type: cell-based

T1 sequence (P22001 whole entry): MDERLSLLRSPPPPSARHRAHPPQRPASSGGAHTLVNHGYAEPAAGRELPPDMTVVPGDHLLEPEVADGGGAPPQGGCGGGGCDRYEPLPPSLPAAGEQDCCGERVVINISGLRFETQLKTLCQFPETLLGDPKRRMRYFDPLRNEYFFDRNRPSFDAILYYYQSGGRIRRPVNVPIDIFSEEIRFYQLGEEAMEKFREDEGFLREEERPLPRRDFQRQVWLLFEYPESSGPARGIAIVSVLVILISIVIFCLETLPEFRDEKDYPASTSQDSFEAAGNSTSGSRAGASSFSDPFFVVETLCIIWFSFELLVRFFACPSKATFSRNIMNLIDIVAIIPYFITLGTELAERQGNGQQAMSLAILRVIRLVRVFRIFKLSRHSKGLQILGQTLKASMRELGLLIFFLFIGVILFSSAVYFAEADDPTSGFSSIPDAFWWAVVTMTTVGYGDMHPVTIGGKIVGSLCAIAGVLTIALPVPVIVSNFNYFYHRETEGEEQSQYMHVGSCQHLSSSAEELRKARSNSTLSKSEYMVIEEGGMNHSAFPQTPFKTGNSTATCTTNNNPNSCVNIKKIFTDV

## Cc1ccc(-c2cc(C(F)(F)F)nn2-c2ccc(S(N)(=O)=O)cc2)cc1 [celecoxib]
  pIC50: 5.30
